Data from patent US11066369B2, “N-(pyridin-2-yl)pyridine-sulfonamide derivatives and their use in the treatment of disease” (Novartis AG, priority 2016, dated 2021).

Columns and labels:
delF508-CFTR = target: T1, delF508-CFTR (Homo sapiens, UniProt P13569, DEL508-508); assay: Measurement of delF508-CFTR functional activity in primary human bronchial epithelial cells (HBECs) using Multi-Transepithelial Clamp Circuit (MTECC-24) assay; type: cell-based; details: primary CF HBECs; for MTECC24 CFHBEC- Amax %: test compound added 24h before assay plus potentiator, relative to reference combination (2 μM corrector + 0.5 μM potentiator); for EC50: test compound added 24h before assay, in the presence of potentiator, mean of at least two replicates, read-out: MTECC24 CFHBEC- EC50
T1 construct: functional activity of the CFTR channel (Chloride ion transport) in patient derived primary human bronchial epithelial cells; host or cells: patient-derived primary human bronchial epithelial cells (delF508-CFTR)
Summary of the method: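 Patient-derived primary delF508-CFTR HBECs, differentiated at air-liquid interface ~2 weeks, treated basolaterally with compound for 24 h, then apical and basolateral compound in HEPES pH 7.4 assay medium. Equivalent short-circuit current (Ieq) recorded on MTECC-24 with sequential amiloride, forskolin, potentiator and INH-172; normalized to 0.1% DMSO, EC50 from curve fit.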

[1] = target: T2, horseradish peroxidase (HRP) tagged delF508-CFTR (Homo sapiens, UniProt P13569, DEL508-508); assay: Measurement of delF508-CFTR-HRP surface expression in CFBE41o- cells; type: cell-based; details: delF508-CFTR-HRP surface expression, CFBE41o- cells; for Emax: read-out: DelF508-CFTR-HRP Amax %; for EC50: read-out: DelF508-CFTR-HRP EC50;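 for DelF508-CFTR-HRP Amax %: percent efficacy relative to reference corrector lumacaftor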
T2 construct: expressed in transfected cells
Summary of the method: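 CFBE41o- bronchial epithelial cells stably expressing delF508-CFTR with HRP in the fourth extracellular loop; expression induced 48h with 500 ng/mL doxycycline, then compounds added (top 10 μM, 10-point 3-fold series, ≤0.5% DMSO) for 24h at 37° C. Surface HRP measured by luminescence with cell-impermeant substrate; EC50 from logistic fit of triplicates, plate-normalized to lowest concentration; efficacy also relative to a reference corrector.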

T1 sequence (P13569 with tags, fused parts or gaps DEL508-508): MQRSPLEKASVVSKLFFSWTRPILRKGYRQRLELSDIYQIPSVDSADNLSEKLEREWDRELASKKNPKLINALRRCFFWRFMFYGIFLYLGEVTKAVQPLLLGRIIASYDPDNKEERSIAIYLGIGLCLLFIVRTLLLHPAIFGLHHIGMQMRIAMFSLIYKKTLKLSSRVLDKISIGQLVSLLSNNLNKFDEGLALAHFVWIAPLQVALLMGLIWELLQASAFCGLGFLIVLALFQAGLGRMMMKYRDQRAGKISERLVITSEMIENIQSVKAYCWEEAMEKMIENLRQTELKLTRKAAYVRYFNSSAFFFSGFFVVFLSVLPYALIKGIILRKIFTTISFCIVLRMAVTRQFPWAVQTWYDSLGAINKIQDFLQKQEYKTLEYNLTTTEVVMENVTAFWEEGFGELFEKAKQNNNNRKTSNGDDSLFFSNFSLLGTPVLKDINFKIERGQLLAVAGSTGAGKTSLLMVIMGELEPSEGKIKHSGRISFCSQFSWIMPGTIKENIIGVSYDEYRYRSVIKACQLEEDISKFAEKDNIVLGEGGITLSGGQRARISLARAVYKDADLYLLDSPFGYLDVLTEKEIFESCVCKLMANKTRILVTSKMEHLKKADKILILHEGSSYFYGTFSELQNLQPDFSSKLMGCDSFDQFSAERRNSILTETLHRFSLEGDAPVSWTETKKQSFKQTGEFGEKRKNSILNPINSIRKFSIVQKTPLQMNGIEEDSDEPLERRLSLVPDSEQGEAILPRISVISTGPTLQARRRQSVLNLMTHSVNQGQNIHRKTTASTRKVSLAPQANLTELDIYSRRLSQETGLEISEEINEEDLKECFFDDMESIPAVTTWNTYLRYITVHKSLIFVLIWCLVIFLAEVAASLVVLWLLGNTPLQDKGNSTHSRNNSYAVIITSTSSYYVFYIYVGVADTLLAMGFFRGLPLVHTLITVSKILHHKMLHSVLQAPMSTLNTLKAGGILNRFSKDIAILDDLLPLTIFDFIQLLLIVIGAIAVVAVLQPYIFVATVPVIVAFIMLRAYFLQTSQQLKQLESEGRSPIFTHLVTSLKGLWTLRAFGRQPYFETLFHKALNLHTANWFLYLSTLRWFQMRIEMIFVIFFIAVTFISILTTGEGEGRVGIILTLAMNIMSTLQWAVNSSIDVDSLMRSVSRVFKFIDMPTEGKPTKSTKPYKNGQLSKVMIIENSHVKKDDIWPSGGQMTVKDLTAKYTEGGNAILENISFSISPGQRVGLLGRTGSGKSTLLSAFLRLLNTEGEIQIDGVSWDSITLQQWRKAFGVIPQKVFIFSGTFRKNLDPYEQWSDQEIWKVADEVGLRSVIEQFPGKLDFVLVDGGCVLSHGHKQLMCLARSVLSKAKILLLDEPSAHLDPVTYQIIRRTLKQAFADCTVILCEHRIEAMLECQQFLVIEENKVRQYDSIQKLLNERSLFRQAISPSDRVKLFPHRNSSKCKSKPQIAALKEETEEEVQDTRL
T2 sequence (P13569 with tags, fused parts or gaps DEL508-508): as above

MTECC24 CFHBEC- Amax % (delF508-CFTR) [%] | EC50 (delF508-CFTR) [nM] | Emax [1] [%] | EC50 [1] [nM] | SMILES
93.1 | 1.17 | 367 | 273 | C[C@]1(C(=O)O)CCCN(c2cccc(S(=O)(=O)Nc3ccc(C(F)(F)F)c(-c4ccccc4C4CCC4)n3)n2)C1 [Example 373, (S)-1-(6-(N-(6-(2-cyclobutylphenyl)-5-(trifluoromethyl)pyridin-2-yl)sulfamoyl)pyridin-2-yl)-3-methylpiperidine-3-carboxylic Acid]
39.8 | 133 | 233 | 2780 | CCc1ccccc1-c1nc(NS(=O)(=O)c2ccnc(N3CCC(C)(C(=O)O)CC3)c2)ccc1C(F)(F)F [Example 374, 1-(4-(N-(6-(2-ethylphenyl)-5-(trifluoromethyl)pyridin-2-yl)sulfamoyl)pyridin-2-yl)-4-methylpiperidine-4-carboxylic Acid]
63.5 | 0.682 | – | 1210 | CC(C)c1ccccc1-c1nc(NS(=O)(=O)c2cccc(N3CCC[C@@H](C(=O)O)C3)n2)ccc1C(F)(F)F [Example 375, (R)-1-(6-(N-(6-(2-isopropylphenyl)-5-(trifluoromethyl)pyridin-2-yl)sulfamoyl)pyridin-2-yl)piperidine-3-carboxylic Acid]

Second part, the compound before the results:

SMILES | MTECC24 CFHBEC- Amax % (delF508-CFTR) [%] | EC50 (delF508-CFTR) [nM] | Emax [1] [%] | EC50 [1] [nM]
O=C(O)[C@H]1CCCN(c2cccc(S(=O)(=O)Nc3ccc(C(F)(F)F)c(-c4ccccc4C4CCC4)n3)n2)C1 [Example 367, (S)-1-(6-(N-(6-(2-cyclobutylphenyl)-5-(trifluoromethyl)pyridin-2-yl)sulfamoyl)pyridin-2-yl)piperidine-3-carboxylic Acid] | 91.2 | 1.4 | 809 | 928
CC1(C(=O)O)CCCN(c2cccc(S(=O)(=O)Nc3ccc(C(F)(F)F)c(-c4ccccc4C4CCC4)n3)n2)C1 (centres unmarked) [Example 368, 1-(6-(N-(6-(2-cyclobutylphenyl)-5-(trifluoromethyl)pyridin-2-yl)sulfamoyl)pyridin-2-yl)-3-methylpiperidine-3-carboxylic Acid] | 66.2 | 0.152 | – | 671
CCc1ccccc1-c1nc(NS(=O)(=O)c2cccc(N3CCC[C@H](C(=O)O)C3)n2)ccc1C(F)(F)F [Example 370, (S)-1-(6-(N-(6-(2-ethylphenyl)-5-(trifluoromethyl)pyridin-2-yl)sulfamoyl)pyridin-2-yl)piperidine-3-carboxylic Acid] | 105.9 | 0.85 | 601 | 1470
CCc1ccccc1-c1nc(NS(=O)(=O)c2cccc(N3CCCC(C)(C(=O)O)C3)n2)ccc1C(F)(F)F (centres unmarked) [Example 371, 1-(6-(N-(6-(2-ethylphenyl)-5-(trifluoromethyl)pyridin-2-yl)sulfamoyl)pyridin-2-yl)-3-methylpiperidine-3-carboxylic Acid] | 254.3 | 1.97 | 962 | 1130
